# Assay results: article PMC9021288 (Nature Communications, 2022)
# Values joined by “and” are separate entries in the source; they are usually repeats but may differ in a detail not shown here. Equal entries are not always repeated. Where two headings read alike, the source gives them in different places.
# Tests used:
# [1] = test system: P. falciparum NF54-HGL gametocytes; experiment: Gametocyte viability assay (72 h, luminescence); format: cell-based, Plasmodium falciparum
# Method: (§1) Gametocyte viability assays on NF54-HGL parasites were performed using an adapted high-throughput protocol as previously described[15],[64]. In short, asexual blood-stage parasite cultures were set up at 1% parasitemia in a semi-automated shaker system at 5% hematocrit. From day four until day eight or nine, parasites were treated with 50 mM N-acetyl glucosamine to eliminate all asexual blood-stage parasites. Subsequently, gametocytes were isolated by a Percoll density gradient centrifugation. At day 11, gametocytes were seeded (5,000 per well) in 30 µl in white 384-well plates containing 30 µl of compounds diluted in medium (0.1% DMSO). After a 72-h incubation, 30 µl of ONE-Glo reagent (Promega) was added according to manufacturer’s protocol and luminescence was quantified using the BioTek Synergy 2 Plate reader. Values were normalized to DMSO- and epoxomicin or dihydroartemisinin-treated controls.
# [2] = test system: cryopreserved human primary hepatocytes; experiment: in vitro; details: for Human hepatocyte CLint: hepatocytes; for % Remaining: 10 µM, single replicates
# From the text: Briefly, cryopreserved human primary hepatocytes were thawed and cultured as described above.
# [3] = test system: P. falciparum Pf3D7^0087/N9; experiment: Single dose in vivo efficacy in humanized NSG mice; parameters: species or system Plasmodium falciparum; details: for parasitemia outcome: single 50 mg/kg oral gavage on day 4, over three days
# Method: The effect of pantothenamides on P. falciparum Pf3D7^0087/N9 [66] in vivo was assessed in female NSG mice (NODscidIL2Rγ^null) at the Swiss Tropical and Public Health Institute (Basel, Switzerland) as described previously (Supplementary Table 30)[15],[67]. Briefly, humanized mice were engrafted daily with human erythrocyte suspensions from days -11 to day 6. […] On day 4, groups of n = 2 mice were treated with a single dose pantothenamides or chloroquine (50 mg/kg) by oral gavage. […] Serial dilutions were prepared in the same solvent to concentrations 50 times higher than the corresponding CAL and QC concentrations. The concentrations were calculated under consideration of purity and salt factor. The spiking of the CAL and QC sample were performed at room temperature.
# [4] = Crystal screening (XRPD); format: physicochemical; details: 36 conditions
# Method: Crystal screening for each further characterized pantothenamide was performed by a commercial service (Crystal Pharmatech Co., Ltd.) under 36 conditions using a variety of crystallization methods, including liquid vapor diffusion, slow evaporation, slurry conversion and salt/co-crystal formation and solvents. X-ray power diffraction (XRPD) patterns were collected by Bruker X-ray powder diffractometers.
# [5] = test system: P. falciparum NF54-HGL, dT648M, cT648M, cT627A asexual blood stages; experiment: Asexual drug-sensitivity of AcAS mutant parasites; format: cell-based, Plasmodium falciparum
# Method: Replication assays were performed using a SYBR Green method as described previously. Briefly, asynchronous parasites were diluted to 0.83% parasitemia, 3% hematocrit in 30 µl medium, and added to 30 µl of diluted compounds in medium (0.1% DMSO final concentration) in black 384-wells plates. After a 72-h incubation, 30 µl of SYBR Green diluted in lysis buffer was added according to the manufacturer’s protocol (Life Technologies). Fluorescence intensity was measured on a BioTek Synergy 2 Plate Reader after 1-h incubation and was normalized to a DMSO control (100% growth) and DHA- or epoxomicin-treatment (no growth). […] Parasite survival was assessed by flow cytometry on an Accuri C6 (BD Biosciences) with BD C6 Plus software using SYBR Green and MitoTracker Deep Red FM (Life Technologies) as nuclear stain and vital dye, respectively, and data were analyzed using FlowJo (10.5.0). […] Luminescence was measured after 72 h using the Renilla-Glo(R) Luciferase Assay System (Promega E2750) and the GlomAX® Discover Multimode Microplate Reader (Promega). The luminescence values were normalized to DMSO vehicle (100% growth) and 200 nM chloroquine-treated (no growth) samples as controls.
# The mutation found in selected drug-resistant parasites was verified by introducing the point mutations in AcAS (T648M and T627A) in NF54-HGL parasites using a CRISPR-Cas9 system as described previously. The oligonucleotides for the guide RNA and the donor template were cloned into a pDC2-based plasmid containing a Cas9 and guide cassette, using the BbsI and EcoRI/AatII restriction sites, respectively. Donor DNA was amplified by (overlap-extension) PCR amplification from genomic P. falciparum DNA and oligonucleotides for the guide RNAs were ordered (Sigma-Aldrich). The correct sequence and integration of both inserts were confirmed by Sanger Sequencing.
# [6] = test system: P. falciparum T648M / T627A AcAS mutant gametocytes; format: cell-based, Plasmodium falciparum
# Method: as §1
# [7] = per replicate experiment, read-out: IC50, sexual blood stages
# [8] = day 5 post infection, 50 mg/kg p.o. on day 4, per mouse, 50 mg/kg
# [9] = day 6 post infection, per mouse
# [10] = day 7 post infection, per mouse
smiles,measurement,setting,value
C[C@@H](CNC(=O)[C@H](O)C(C)(C)CO)NC(=O)c1cccc(C#N)c1 (stereo in doubt) [MMV884962],"Sexual blood stages viability, dose-response",[1]; Log concentration (M) -9,92.55 and 54.1
same,"Sexual blood stages viability, dose-response",[1]; Log concentration (M) -9.5,110.8 and 104.4
same,"Sexual blood stages viability, dose-response",[1]; Log concentration (M) -10,97.15 and 70.3
same,IC50,[1]; [7],5.95 nM and 2.17 nM
same,Human hepatocyte CLint,[2],0.3 µl/min/10^6 cells
same,Parasitemia,[3]; [8],0.31 and 0.28
same,Parasitemia,[3]; [9],0.05
same,Parasitemia,[3]; [10],0
same,parasitemia outcome,[3],reduced parasitemias below detectable levels
same,Crystalline,[4],No
C[C@@H](CNC(=O)[C@H](O)C(C)(C)CO)NC(=O)c1cc(F)c(F)cc1F [MMV693183],"Sexual blood stages viability, dose-response",[1]; Log concentration (M) -7.5,36.75 and 49.45 and 51.8
same,"Sexual blood stages viability, dose-response",[1]; Log concentration (M) -8,69.2 and 83.95 and 95.65
same,"Sexual blood stages viability, dose-response",[1]; Log concentration (M) -8.5,82.4 and 91.1 and 100.8
same,"Sexual blood stages viability, dose-response",[1]; Log concentration (M) -9,98.1 and 92.5 and 103.2
same,"Sexual blood stages viability, dose-response",[1]; Log concentration (M) -9.5,107.25 and 92.05 and 100.45
same,"Sexual blood stages viability, dose-response",[1]; Log concentration (M) -10,92.05 and 87.2 and 94.15
same,IC50,[1]; [7],17.8 nM and 36 nM and 36.8 nM
same,% Remaining,"[2]; hepatocyte donor HC02, 0 h",100.0%
same,% Remaining,"[2]; hepatocyte donor HC02, 6 h",77.4% and 91.4%
same,% Remaining,"[2]; hepatocyte donor HC02, 24 h",90.3% and 124.4%
same,% Remaining,"[2]; hepatocyte donor HC02, 48 h",87.4% and 110.8%
same,% Remaining,"[2]; hepatocyte donor HC02, 72 h",63.9% and 86.8%
same,% Remaining,"[2]; hepatocyte donor HC06, 0 h",100.0%
same,% Remaining,"[2]; hepatocyte donor HC06, 3 h",77.2% and 88.0%
same,% Remaining,"[2]; hepatocyte donor HC06, 6 h",79.3% and 91.3%
same,% Remaining,"[2]; hepatocyte donor HC06, 24 h",87.0% and 115.0%
same,% Remaining,"[2]; hepatocyte donor HC06, 48 h",64.3% and 81.2%
same,% Remaining,"[2]; hepatocyte donor HC06, 72 h",61.0% and 75.3%
same,% Remaining,"[2]; hepatocyte donor HC425, 0 h",100.0%
same,% Remaining,"[2]; hepatocyte donor HC425, 6 h",79.3% and 88.2%
same,% Remaining,"[2]; hepatocyte donor HC425, 24 h",68.0% and 93.2%
same,% Remaining,"[2]; hepatocyte donor HC425, 48 h",73.6% and 94.3%
same,% Remaining,"[2]; hepatocyte donor HC425, 72 h",68.2% and 91.6%
same,% Remaining,"[2]; hepatocyte donor HC1010, 0 h",100.0%
same,% Remaining,"[2]; hepatocyte donor HC1010, 1 h",120.3% and 86.1% and 104.1% and 69.6%
same,% Remaining,"[2]; hepatocyte donor HC1010, 6 h",88.7% and 55.7% and 88.0% and 45.9%
same,% Remaining,"[2]; hepatocyte donor HC1010, 24 h",90.4% and 62.9% and 77.2% and 55.3%
same,% Remaining,"[2]; hepatocyte donor HC1010, 48 h",70.7% and 54.4% and 57.7% and 44.1%
same,% Remaining,"[2]; hepatocyte donor HC1010, 72 h",34.1% and 43.9% and 31.3% and 51.9%
same,CLint,[2]; donor HC02,0.082 µL/min/million cells
same,CLint,[2]; donor HC06,0.142 µL/min/million cells
same,CLint,[2]; donor HC425,0.0695 µL/min/million cells
same,Human hepatocyte CLint,[2],0.4 µl/min/10^6 cells
same,"human hepatocyte clearance, four donors",[2]; range of donors,0.07 to 0.4 µl/min/10^6 cells
same,Parasitemia,[3]; [8],0.2 and 0.29
same,Parasitemia,[3]; [9],0.03 and 0.02
same,Parasitemia,[3]; [10],0
same,parasitemia outcome,[3],reduced parasitemias below detectable levels
same,Crystalline,[4],Yes
same,sensitivity of T627A AcAS mutant,[5],also resistant to MMV693183
same,IC50 shift asexual,[5]; CRISPR cT648M,49 ×
same,IC50 shift,[5]; NF54 selected at 7 nM,77 x
same,IC50 shift,"[5]; selected resistant parasites vs parent, asexual growth assay",13-77 ×
same,IC50 shift sexual,[6]; CRISPR cT648M,> 50 ×
same,IC50 shift gametocytes,[6]; selected resistant (dT648M) gametocytes,> 50 ×
C[C@@H](CNC(=O)[C@H](O)C(C)(C)CO)NC(=O)c1cccc(F)c1 (stereo in doubt) [MMV1542001],"Sexual blood stages viability, dose-response",[1]; Log concentration (M) -9,60.65 and 74.3
same,"Sexual blood stages viability, dose-response",[1]; Log concentration (M) -9.5,76.05 and 100.7
same,"Sexual blood stages viability, dose-response",[1]; Log concentration (M) -10,85.65 and 89
same,IC50,[1]; [7],1.98 nM and 9.93 nM
same,Human hepatocyte CLint,[2],0.5 µl/min/10^6 cells
same,Parasitemia,[3]; [8],0.4 and 0.31
same,Parasitemia,[3]; [9],0.06 and 0.01
same,Parasitemia,[3]; [10],0
same,parasitemia outcome,[3],reduced parasitemias below detectable levels
same,Crystalline,[4],No
C[C@@H](CNC(=O)[C@H](O)C(C)(C)CO)NC(=O)c1cc(C#N)ccc1F [MMV693182],"Sexual blood stages viability, dose-response",[1]; Log concentration (M) -7.5,49.3 and 51
same,"Sexual blood stages viability, dose-response",[1]; Log concentration (M) -8,81.9 and 78.35
same,"Sexual blood stages viability, dose-response",[1]; Log concentration (M) -8.5,96 and 103.7
same,"Sexual blood stages viability, dose-response",[1]; Log concentration (M) -9,97.2 and 103.7
same,"Sexual blood stages viability, dose-response",[1]; Log concentration (M) -9.5,95 and 105.75
same,"Sexual blood stages viability, dose-response",[1]; Log concentration (M) -10,95.6 and 117.9
same,IC50,"[1]; Plasmodium falciparum, NF54, per replicate experiment, read-out: IC50, sexual blood stages",32.9 nM
same,IC50,"[1]; Plasmodium falciparum, NF54, sexual viability assay, range of independent experiments, read-out: Gametocyte IC50 range (N)",21.4 to 32.9 nM
same,IC50,[1]; [7],21.4 nM
same,Parasitemia,[3]; [8],0.28 and 0.38
same,Parasitemia,[3]; [9],0.03 and 0.05
same,Parasitemia,[3]; [10],0.02
same,parasitemia outcome,[3],not fully cleared
same,Crystalline,[4],Yes
CC(C)(CO)[C@@H](O)C(=O)NCCNC(=O)c1cc(C#N)ccc1F [MMV976394],"Sexual blood stages viability, dose-response",[1]; Log concentration (M) -6,82.2 and 80.4
same,"Sexual blood stages viability, dose-response",[1]; Log concentration (M) -6.5,89.6 and 82.4
same,"Sexual blood stages viability, dose-response",[1]; Log concentration (M) -7,87.4 and 85.95
same,"Sexual blood stages viability, dose-response",[1]; Log concentration (M) -7.5,108.15 and 96.65
same,"Sexual blood stages viability, dose-response",[1]; Log concentration (M) -8,91.85 and 97.6
same,"Sexual blood stages viability, dose-response",[1]; Log concentration (M) -8.5,92.6 and 88
same,"Sexual blood stages viability, dose-response",[1]; Log concentration (M) -9,87.75 and 103.75
same,"Sexual blood stages viability, dose-response",[1]; Log concentration (M) -9.5,90 and 115.4
same,"Sexual blood stages viability, dose-response",[1]; Log concentration (M) -10,90 and 95.6
same,Human hepatocyte CLint,[2],0.2 µl/min/10^6 cells
same,Parasitemia,[3]; [8],0.56 and 0.41
same,Parasitemia,[3]; [9],0.32
same,Parasitemia,[3]; [10],0.17
same,parasitemia outcome,[3],not fully cleared
same,Crystalline,[4],No
